Measured values taken from ChEMBL document CHEMBL3045581, “Preliminary evaluation of rat kidney aldose reductase inhibitory activity of 2-phenylindole derivatives: affiliation to antioxidant activity” (Med Chem Res, 2007).
Active and inactive are the calls of the source. The calls are words filed in the database; no cut-off is given here.

Columns and labels:
[1] = molecular target: Aldo-keto reductase family 1 member B1 (Rattus norvegicus) (UniProt P07943); experiment: Inhibition of Rattus norvegicus albino (rat) kidney aldose reductase using D-L-glyceraldehyde as substrate assessed as decrease in NADPH level measured for 5 min by spectrophotometric analysis
[2] = system: Liver; experiment: Antioxidant activity in Rattus norvegicus (rat) liver assessed as superoxide anion scavenging activity at 10^-3 to 10^-4 M; format: functional, tissue-based
[3] = system: Liver; experiment: Antioxidant activity in Rattus norvegicus (rat) liver assessed as DPPH free radical scavenging activity at 10^-3 to 10^-4 M; format: functional, tissue-based

Row | Structure (SMILES) | inhibition [1] | Activity [2] | Activity [3]
1 | Clc1ccc(-c2cc3ccccc3[nH]2)cc1 | inactive | Active | inactive
2 | Fc1ccc(-c2cc3ccccc3[nH]2)cc1 | inactive | Active | inactive
3 | c1ccc(-c2cc3ccccc3[nH]2)cc1 | inactive | inactive | inactive
4 | O=[N+]([O-])c1cc(-c2cc3ccccc3[nH]2)ccc1Cl | 5.29% | Active | Active
5 | O=[N+]([O-])c1cc([N+](=O)[O-])c2[nH]c(-c3ccccc3)cc2c1 | inactive | Active | Active
6 | Clc1ccc(-c2cc3ccccc3[nH]2)cc1Cl | inactive | Active | inactive
7 | Nc1ccc(-c2cc3ccccc3[nH]2)cc1 | 11% | Active | Active

Second part, led by results:

Row | inhibition [1] | Structure (SMILES) | Activity [2] | Activity [3]
8 | 7.64% | O=Cc1c(-c2ccccc2)[nH]c2ccccc12 | inactive | inactive
9 | inactive | O=Cc1c(-c2ccc(Cl)cc2)[nH]c2ccccc12 | inactive | inactive
10 | inactive | O=Cc1c(-c2ccc(F)cc2)[nH]c2ccccc12 | inactive | inactive
11 | inactive | O=Cc1c(-c2ccc(Cl)c([N+](=O)[O-])c2)[nH]c2ccccc12 | inactive | inactive
12 | inactive | Nc1ccc(-c2[nH]c3ccccc3c2C=O)cc1 | inactive | inactive
